Assay results from patent US7674954B2, “DNA constructs that contain Helianthus annuus Hahb-10 gene coding sequence, method for generating plants with a shortened life cycle and a high tolerance to herbicidal compounds and transgenic plants with that sequence” (Universidad Nacional del Litoral, priority 2006, dated 2010).

Experiments:
[1] = tested on: Hahb-10 transcript levels; assay: Northern blot of Hahb-10 transcript levels in treated sunflower seedlings; assay type: in vivo, Helianthus annuus
Procedure: 2A: Total RNA samples (20 μg each) extracted from 4-day-old seedlings subjected to different treatments as described later were hybridized with a ^32P-labeled Hahb-10 cDNA specific probe (A, upper panel). The same filter was hybridized with an rRNA probe as a control for RNA loading and transfer. Spots obtained with the specific probe were quantified in reference to their rRNA using Image Pro Plus software. […] Quantitation of the signals has been done taking as standard value the signal obtained in these seedlings because the signal obtained in control seedlings was almost not detectable by the software used for this purpose. 2B: Total RNA samples (20 μg each) extracted from 7-day-old seedlings grown in normal illumination conditions (lane 1), in the dark (lane 2), or under continuous illumination at 40 cm from the light source applied to 4-day-old seedlings germinated in the dark during 3 additional days (lane 3) were analyzed by electrophoresis, transferred onto nylon membranes and hybridized with a ^32P-labelled Hahb-10 cDNA specific probe (upper panel). The same filter was hybridized with an rRNA probe as a control for RNA loading and transfer (lower panel). […]

[2] = tested on: non-transformed (wild-type) Arabidopsis plants; assay: Stem elongation after gibberellin spraying, non-transformed plants; assay type: in vivo, Arabidopsis thaliana
Procedure: (§1) Stem height was measured with a ruler in non transformed (1) or 35S-Hahb10 transgenic plants (2: line A; 3: line B and 4: line C). Grey bars represent three transgenic lines and white bars represent wild-type plants. Right series in each panel represent GA3 treated plants while left series represent their non-treated counterparts. […] Arabidopsis transgenic or wild-type plants were grown under normal illumination conditions for 15 days. After this, the plants were sprayed with 200 μM GA3. This treatment was repeated at day 25. Stem length was measured in 20- and 30-day-old plants with a ruler. […] In order to investigate the response of Hahb-10 overexpressing lines to this hormone, we treated plants with 200 μM gibberellins as described above.

[3] = tested on: 35S-Hahb10 transgenic Arabidopsis plants; assay: Stem elongation after gibberellin spraying, Hahb-10 overexpressing plants; assay type: in vivo, Arabidopsis thaliana
Procedure: as §1

[4] = tested on: wild-type Arabidopsis thaliana; assay: Herbicide (methyl viologen) spraying, non-transformed plants; assay type: in vivo; details: 10 to 30 μM methyl viologen sprayed on 21-day-old plants, correlating to concentration
Procedure: (§2) Treatments with the herbicide Paraquat were carried out by growing transgenic and wild-type 21-day-old plants under normal conditions and spraying them with methyl viologen at concentrations of 10, 20 or 30 μM.
(§3) In order to study the effect of Hahb-10 overexpression on the tolerance to herbicides, transgenic and wild-type 21-day-old Arabidopsis thaliana were grown under normal conditions and were sprayed with methyl viologen at concentrations of 10, 20 or 30 μM. Once sprayed, they were left at the same illumination and temperature conditions for 24 hours and, at that time, leaf impairment was easily observable. One week after MV treatment, chlorophyll content in the leaves from both genotypes was analyzed. Plants were allowed to recover for three days and the percentage of survivors, either wild-type or transgenic ones expressing the Hahb-10 gene, was recorded.

[5] = tested on: transgenic Arabidopsis thaliana expressing the Hahb-10 gene; assay: Herbicide (methyl viologen) spraying, Hahb-10 transgenic plants; assay type: in vivo; details: 10 to 30 μM methyl viologen sprayed on 21-day-old plants; three independent transgenic lines; dose-dependent
Procedure: as §2, §3

C=C1C[C@]23C[C@@]1(O)CC[C@H]2[C@@]12C=C[C@H](O)[C@@](C)(C(=O)O1)[C@H]2[C@@H]3C(=O)O [gibberellins, gibberellic acid]
Hahb-10 transcript levels raised with respect to the heat-shock treatment ([1]; 100 μM gibberellic acids, Northern blot normalised to rRNA): 5 fold | increase in stem elongation with respect to non-treated controls ([2]; 200 μM gibberellins sprayed, 5 days after the first treatment (20-day-old plants), non-transformed plants): 3.7 fold | stem elongation induction on average ([2]; 200 μM gibberellins, after the second treatment (30-day-old plants), wild-type plants): 1.5 fold | increase in stem length with respect to non-treated controls ([3]; 200 μM gibberellins sprayed, 5 days after the first treatment (20-day-old plants)): 1.6 fold | stem elongation induction on average ([3]; 200 μM gibberellins, after the second treatment (30-day-old plants)): 1.2 fold

C[n+]1ccc(-c2cc[n+](C)cc2)cc1 [methyl viologen]
effect of herbicide treatment on plants [4]: dramatically affected | effect of herbicide treatment on plants [5]: resistant

OC[C@H]1O[C@@](CO)(O[C@H]2O[C@H](CO)[C@@H](O)[C@H](O)[C@H]2O)[C@@H](O)[C@@H]1O [sucrose]
effect on Hahb-10 mRNA levels ([1]; sucrose 10% w/v, similar to slight enhancement by heat/cold shock, water stress, hypoxia): produced a similar effect
